Columns and labels:
[1] = target: T1, C5a anaphylatoxin chemotactic receptor 1 (Homo sapiens, UniProt P21730); experiment: Antagonist activity at human recombinant C5a receptor in U937 cells assessed as inhibition of C5a-induced calcium mobilization by FLIPR assay; assay type: functional, cell-based, U-937
T1 sequence (P21730 whole entry): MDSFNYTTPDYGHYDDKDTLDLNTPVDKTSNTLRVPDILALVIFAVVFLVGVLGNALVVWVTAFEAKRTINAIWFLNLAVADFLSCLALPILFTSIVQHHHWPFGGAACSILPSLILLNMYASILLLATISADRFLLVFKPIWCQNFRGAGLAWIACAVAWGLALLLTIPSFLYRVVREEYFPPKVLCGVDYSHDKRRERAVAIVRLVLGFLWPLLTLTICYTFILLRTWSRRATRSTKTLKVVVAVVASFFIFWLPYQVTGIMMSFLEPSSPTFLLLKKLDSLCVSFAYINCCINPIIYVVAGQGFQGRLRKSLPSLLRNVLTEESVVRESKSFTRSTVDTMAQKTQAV

[2] = target: T1, C5a anaphylatoxin chemotactic receptor 1; experiment: Displacement of [125I]C5a from human recombinant C5a receptor in U937 cells; assay type: cell-based, U-937
Rattus norvegicus [3] = experiment: Cmax in rat at 10 mg/kg, po; assay type: ADME, organism-based; parameters: dose 10 mg/kg, route oral; details: in vivo
[4] = Volume of distribution at steady state in rat at 2 mg/kg, iv; assay type: ADME, organism-based; parameters: dose 2 mg/kg, route intravenous; details: in vivo, read-out: Vdss
[5] = Half life in rat at 10 mg/kg, po; assay type: ADME, organism-based; parameters: dose 10 mg/kg, route oral; details: in vivo
[6] = Oral bioavailability in rat at 10 mg/kg; assay type: ADME, organism-based; details: in vivo
[7] = Half life in rat at 2 mg/kg, iv; assay type: ADME, organism-based; parameters: dose 2 mg/kg, route intravenous; details: in vivo
Rattus norvegicus [8] = experiment: AUC in rat at 10 mg/kg, po; assay type: ADME, organism-based, Plasma; parameters: dose 10 mg/kg, route oral; details: in vivo
[9] = Clearance in rat at 2 mg/kg, iv; assay type: ADME, organism-based; parameters: dose 2 mg/kg, route intravenous; details: in vivo

Structure (SMILES)	IC50 [1] [µM]	further results
CCc1cccc(CC)c1-c1cc(OC)c2c(n1)CCCC2Nc1cc(F)ccc1C (stereo unspecified)	1.4	–
CCc1cccc(CC)c1-c1cc(OC)c2c(n1)CCCC2Nc1cc(-c2ccccc2)ccc1C (stereo unspecified)	2.5	–
CCc1cccc(CC)c1-c1cc(OC)c2c(n1)CCCC2Nc1cc(OC)ccc1-c1ccccc1 (stereo unspecified)	> 10	–
CCc1cccc(CC)c1-c1cc(OC)c2c(n1)CCCC2Nc1cc(O)ccc1C (stereo unspecified)	> 10	–
CCc1cccc(CC)c1-c1cc(OC)c2c(n1)CCCC2Nc1ccc(OC)cc1C (stereo unspecified)	2.4	–
CCc1cccc(CC)c1-c1cc(OC)c2c(n1)CCCC2Nc1ccccc1CCO (stereo unspecified)	–	Ki [2]: 0.021 µM
CCc1cccc(CC)c1-c1cc(OC)c2c(n1)CCCC2Nc1ccccc1C(C)=O (stereo unspecified)	> 10	–
CCc1cccc(CC)c1-c1cc(OC)c2c(n1)CCCC2Nc1ccccc1C(=O)OC (stereo unspecified)	> 10	–
CCc1cccc(CC)c1-c1cc(OC)c2c(n1)CCCC2Nc1cc(OC)ccc1C (stereo unspecified)	0.14	Cmax (Rattus norvegicus [3]): 290 ng/mL; Vd [4]: 4.5 L/kg; half-life [5]: 5.3 h; bioavailability [6]: 21%; half-life [7]: 6.3 h; AUC (Rattus norvegicus [8]): 700 ng·h/mL; clearance [9]: 21 mL/min/kg
CCc1cccc(CC)c1-c1cc(OC)c2c(n1)CCCC2Nc1ccccc1CO (stereo unspecified)	0.12	–
CCc1cccc(CC)c1-c1cc(OC)c2c(n1)CCCC2Nc1cc(C)ccc1C (stereo unspecified)	0.43	–
CCc1cccc(CC)c1-c1cc(OC)c2c(n1)CCCC2Nc1cc(CO)ccc1C (stereo unspecified)	> 10	–
CCc1cccc(CC)c1-c1cc(OC)c2c(n1)CCCC2Nc1ccccc1C(N)=O (stereo unspecified)	> 10	–
CCc1cccc(CC)c1-c1cc(OC(C)C)c2c(n1)CCCC2Nc1ccccc1CCO (racemic)	0.007	–
CCc1cccc(CC)c1-c1cc(OC)c2c(n1)CCCC2N(C)c1cc(OC)ccc1OC (racemic)	2.6	–
COc1cc(-c2c(C)cccc2C)nc2c1C(N(C)c1c(C)cccc1C)CCC2 (racemic)	> 10	–
COc1cccc(N(C)C2CCCc3nc(-c4c(C)cccc4C)cc(OC)c32)c1C (racemic)	> 10	–
CCc1cccc(CC)c1-c1cc(OC)c2c(n1)CCCC2N(C)c1cc(-c2ccccc2)ccc1C (racemic)	> 10	–
CCc1cccc(CC)c1-c1cc(OC)c2c(n1)CCCC2N(C)c1cc(Cl)ccc1C (racemic)	2.6	–

From ChEMBL document CHEMBL1155122, “Design and optimization of aniline-substituted tetrahydroquinoline C5a receptor antagonists” (Bioorg Med Chem Lett, 2008)
